US20160208002A1, “Compositions Associated with and Methods of Managing Neutrophil Movement” (priority 2013, published 2016)

What was measured:
[1] = system: human neutrophils; assay: human neutrophil adhesion to human fibronectin after TNF-α; type: cell-based; conditions: fibronectin-coated plate, FIG. 2
Excerpt: Human blood was collected into EDTA tubes (BD Bioscience, San Jose, Calif.) from adult volunteers who gave written consent and with specific approval from the Texas A&M University human subjects Institutional Review Board. Neutrophils were then isolated from the blood using Lympholyte-poly (Cedarlane Laboratories, Hornby, BC, Canada) following the manufacturer's protocol and resuspended in 2% bovine serum albumen (BSA) (fraction V, A3059; Sigma-Aldrich) in RPMI 1640 medium (Lonza, Allendale, N.J.). 96-well tissue culture plates (flat-bottom polystyrene, BD Bioscience) were pre-coated with 20 μg/ml of human plasma fibronectin (Trevigen, Gaithersburg, Md.) in phosphate buffered saline (PBS) for 30 minutes at 37° C. and then blocked with 2% BSA in RPMI for 1 hour at 37° C. 50 microliters of 5×10^5 cells/ml neutrophils were incubated with 3 microgram/ml (0.5 microliters of the stock solution) of compound 1 or 3 for 30 minutes at 37° C. in a 1.5 ml Eppendorf tube (Eppendorf, Hauppauge, N.Y.). When testing the effect of CD209 antibodies on neutrophil adhesion to human fibronectin, anti-human CD209 antibodies clone DCN46 (BD Biosciences, San Jose, Calif.), eB-h209 (eBioscience, San Jose, Calif.), H-200 (Santa Cruz Biotechnology, Dallas, Tex.), ab89186 (Abcam, Cambridge, Mass.), or 9E9A8 (Biolegend Inc, San Diego, Calif.) were incubated with neutrophils at a concentration of 1 microgram/ml (0.2 microliters of the stock solution) or the concentration indicated on the figure. Rat IgG2a was used as an isotype control for the anti-human CD209 antibody clone eB-h209. Mouse IgG2b was used as an isotype control for the anti-human CD209 antibody clone DCN46. Mouse IgG1 was used as an isotype control for the anti-human CD209 antibody clone 9E9A8. Rabbit IgG was used as an isotype control for the two rabbit anti-human CD209 antibodies clone H-200 and ab89186. […] After removing the media and washing the plates 3 times with PBS, the plates were air-dried, fixed, stained, and the number of neutrophils that remained in the wells was counted. […]

[2] = system: human neutrophils; assay: human neutrophil spreading on fibronectin-coated plates after TNF-α; type: cell-based; conditions: 3 microgram/ml compound, FIG. 3
[3] = system: C57/BL6 mice treated with bleomycin; assay: bleomycin-treated mice, cells in bronchoalveolar lavage (BAL); type: in vivo; conditions: 0.1 mg/kg intraperitoneal daily from day 1, day 3 after bleomycin, versus drug vehicle; FIG. 5A
Description: The successful aspiration of bleomycin into the lungs was confirmed by listening for the crackling noise heard after the aspiration. 24 hours following bleomycin aspiration (day 1), mice were treated daily with intraperitoneal injections of 50 microliters of PBS containing 2 microliters of 1 mg/ml of compound 1 (ChemBridge Corporation, San Diego, Calif.) (0.1 mg/kg) dissolved in DMSO (SigmaAldrich, St. Louis, Mo.) or an equal volume of PBS containing 2 microliters of DMSO. All animals were used in accordance with rules published by the National Institutes of Health and with a protocol approved by the Texas A&M University Institutional Animal Care and Use Committee. Mice were weighed daily, and euthanized using CO2 following NIH guidelines at day 3 after bleomycin aspiration. There were no injections on day 3. […] The cells were resuspended in 500 microliters of 4% (w/v) BSA-PBS and counted with a hemacytometer. […] Primary antibodies were detected with biotinylated mouse anti-rat antibody (Jackson ImmunoResearch, West Grove, Pa.). […] Biotinylated antibodies were detected by a 1/500 dilution of ExtrAvidin alkaline phosphatase (Vector Laboratories, Burlingame, Calif.) in 4% BSA-PBS for 30 minutes. […] After washing, the biotinylated antibodies were detected by streptavidin-alkaline phosphatase kit (Vector Laboratories) following the manufacturer's protocol.

[4] = system: C57/BL6 mice treated with bleomycin; assay: bleomycin-treated mice, cells in lung sections after BAL; type: in vivo; conditions: 0.1 mg/kg intraperitoneal daily, day 3 after bleomycin, FIG. 5B
Description: The successful aspiration of bleomycin into the lungs was confirmed by listening for the crackling noise heard after the aspiration. 24 hours following bleomycin aspiration (day 1), mice were treated daily with intraperitoneal injections of 50 microliters of PBS containing 2 microliters of 1 mg/ml of compound 1 (ChemBridge Corporation, San Diego, Calif.) (0.1 mg/kg) dissolved in DMSO (SigmaAldrich, St. Louis, Mo.) or an equal volume of PBS containing 2 microliters of DMSO. All animals were used in accordance with rules published by the National Institutes of Health and with a protocol approved by the Texas A&M University Institutional Animal Care and Use Committee. Mice were weighed daily, and euthanized using CO2 following NIH guidelines at day 3 after bleomycin aspiration. There were no injections on day 3. […] The cells from the first BAL collection were collected by centrifugation at 500×g for 10 minutes. The BAL pellets were resuspended in the secondary and tertiary BAL fluid and the combined cells were collected by centrifugation at 500×g for 5 minutes. The cells were resuspended in 500 microliters of 4% (w/v) BSA-PBS and counted with a hemacytometer. 100 microliters of diluted cells were then aliquoted into cytospin funnels and were then spun onto glass slides (Superfrost plus white slides, VWR) at 400×g for 5 minutes using a cytospin centrifuge (Shandon, Cheshire, England). These cells were then air dried, and stained with anti-mouse Ly6G (Biolegend) to detect neutrophils, anti-mouse CD11b (Biolegend) to detect granulocytes, monocytes, and macrophages, anti-mouse CD11c (MBL International) to detect alveolar macrophages and dendritic cells, or anti-mouse CD45 (Biolegend) to detect leukocytes. For all slides, non-specific; binding was blocked by incubation in PBS containing 4% BSA for 60 minutes. Slides were then incubated with 5 microgram/ml primary antibodies in 4% BSA-PBS for 60 minutes. Primary antibodies were detected with biotinylated mouse anti-rat antibody (Jackson ImmunoResearch, West Grove, Pa.). All secondary antibodies were used at 2.5 microgram/ml in 4% BSA-PBS for 30 minutes. Biotinylated antibodies were detected by a 1/500 dilution of ExtrAvidin alkaline phosphatase (Vector Laboratories, Burlingame, Calif.) in 4% BSA-PBS for 30 minutes. Staining was developed with the Vector Red Alkaline Phosphatase Kit (Vector Laboratories) for 4 minutes following the manufacturer's protocol. […] After washing, the biotinylated antibodies were detected by streptavidin-alkaline phosphatase kit (Vector Laboratories) following the manufacturer's protocol.

[5] = molecular target: T1, CD209 (Homo sapiens, UniProt Q9NNX6); conditions: read-out: affinity for CD209, Kd; cited from earlier work
T1 sequence (Q9NNX6 1-404): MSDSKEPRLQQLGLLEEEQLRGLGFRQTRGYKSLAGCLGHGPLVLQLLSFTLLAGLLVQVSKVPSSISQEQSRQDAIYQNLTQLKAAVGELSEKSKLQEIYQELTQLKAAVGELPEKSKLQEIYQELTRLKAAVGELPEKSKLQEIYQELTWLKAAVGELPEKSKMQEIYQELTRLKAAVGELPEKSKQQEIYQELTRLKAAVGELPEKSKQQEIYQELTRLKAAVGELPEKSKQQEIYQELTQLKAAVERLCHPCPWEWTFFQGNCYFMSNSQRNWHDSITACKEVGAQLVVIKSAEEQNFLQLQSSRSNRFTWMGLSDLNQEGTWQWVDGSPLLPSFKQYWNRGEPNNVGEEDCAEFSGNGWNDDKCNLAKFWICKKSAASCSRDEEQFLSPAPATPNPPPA

[6] = molecular target: T2, CD209 tetramer (Homo sapiens, UniProt Q9NNX6); conditions: concentration required to inhibit, by 50%, the binding of a fluorescently labeled mannosylated glycoconjugate to CD209 tetramer; cited from earlier work
T2 sequence (Q9NNX6 59-404 limits assumed): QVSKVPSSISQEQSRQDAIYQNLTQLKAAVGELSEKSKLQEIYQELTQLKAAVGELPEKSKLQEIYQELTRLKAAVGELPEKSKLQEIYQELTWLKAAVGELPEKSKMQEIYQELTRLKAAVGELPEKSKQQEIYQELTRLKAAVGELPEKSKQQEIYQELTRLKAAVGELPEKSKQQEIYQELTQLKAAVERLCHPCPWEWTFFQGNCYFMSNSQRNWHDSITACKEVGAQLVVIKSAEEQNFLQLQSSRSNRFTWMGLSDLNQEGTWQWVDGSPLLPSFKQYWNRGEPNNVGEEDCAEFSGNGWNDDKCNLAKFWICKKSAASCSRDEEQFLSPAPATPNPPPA

[7] = 3 microgram/ml compound, 30 minutes

| Molecule | Kd [5] | IC50 [6] | other results |
| --- | --- | --- | --- |
| CCC(=O)Nc1nc(C)c(-c2csc(Nc3ccc(N(C)C)cc3)n2)s1 [Compound 1] | 1.6 µM | – | neutrophil adhesion compared to the TNF-α control [1, 7]: significantly reduced neutrophil adhesion; neutrophil spreading compared to the TNF-α control [2]: reduced neutrophil spreading; number of CD11b-positive inflammatory macrophages in the BAL [3]: decrease; number of Ly6G-positive neutrophils in the BAL [3]: decrease; CD11c-positive macrophages in lung sections ([4]; versus drug vehicle): significant increase; CD206-positive cells in lung sections ([4]; versus drug vehicle): significant increase; number of Ly6G-positive neutrophils in lung sections ([4]; versus drug vehicle): significant decrease; CD11b-positive inflammatory macrophages in lung sections [4]: no effect |
| CCCOC(=O)c1ccc(-c2ccc(C=C3C(=O)N(c4ccc(S(N)(=O)=O)cc4)N=C3C(F)(F)F)o2)cc1 [Compound 2] | 6.2 µM | – | – |
| COC(=O)c1ccc(-c2ccc(C=C3C(=O)N(c4ccc(S(N)(=O)=O)cc4)N=C3C(F)(F)F)o2)cc1 [Compound 3] | 32 µM | – | neutrophil adhesion compared to the TNF-α control [1, 7]: significantly reduced neutrophil adhesion |
| O=C1Nc2cc(C(=O)N3CCN(c4ccccc4)CC3)ccc2NC1CSCc1c(F)cccc1Cl (stereo not shown) [Compound 4] | 7.3 µM | – | – |
| Cc1ccc(N(C)S(=O)(=O)c2ccc3[nH]cc(C(=O)N4CCN(c5ccccc5)CC4)c(=O)c3c2)cc1C [Compound 6] | 6.1 µM | – | – |
| CN1CCN(c2ccc(/C=C3\Sc4ccccc4C3=O)cc2[N+](=O)[O-])CC1 [Compound 7] | 10 µM | – | – |
| CCCCCC1C(=O)Nc2cc(C(=O)N3CCN(CCC)CC3)ccc2N1CC (stereo not shown) [Compound 9] | – | 370 µM | – |
| CCCCCC1C(=O)Nc2cc(C(=O)N3CCN(CC)CC3)ccc2N1C (stereo not shown) [Compound 10] | – | 360 µM | – |
| CCCCC1C(=O)Nc2cc(C(=O)N3CCN(C)CC3)ccc2N1C (stereo not shown) [Compound 11] | – | 329 µM | – |
| CCCCC1Nc2ccc(C(=O)N3CCN(C)CC3)cc2NC1=O (stereo not shown) [Compound 12] | – | 313 µM | – |
| CCC(=O)CCCC1C(=O)Nc2cc(C(=O)N3CCN(c4ccccc4)CC3)ccc2N1Cc1ccccc1 (stereo not shown) [Compound 14] | – | 170 µM | – |
| O=C1Nc2cc(C(=O)N3CCN(c4ccccc4O)CC3)ccc2NC1CCCc1ccccc1 (stereo not shown) [Compound 15] | – | 113 µM | – |
| O=C1Nc2cc(C(=O)N3CCN(c4ccccc4)CC3)ccc2NC1CCCc1ccccc1C(F)(F)F (stereo not shown) [Compound 16] | – | 71 µM | – |
| CCN1c2ccc(C(=O)N3CCN(c4ncccn4)CC3)cc2NC(=O)C1CCCc1ccc(C(N)=O)cc1 (stereo not shown) [Compound 17] | – | 68 µM | – |
| CC(=O)Nc1cccc(CCCC2Nc3ccc(C(=O)N4CCN(c5cccc(C(F)(F)F)c5)CC4)cc3NC2=O)c1 (stereo not shown) [Compound 19] | – | 23 µM | – |
| O=C(O)c1ccc(CCCC2Nc3ccc(C(=O)N4CCN(c5ccco5)CC4)cc3NC2=O)cc1 (stereo not shown) [Compound 20] | – | 10 µM | – |
| COc1ccccc1N1CCN(C(=O)c2ccc3c(c2)NC(=O)C(CCCc2ccccc2C)N3)CC1 (stereo not shown) [Compound 21] | – | 4.4 µM | – |
| NC(=O)c1ccc(CCCC2Nc3ccc(C(=O)N4CCN(c5ncccn5)CC4)cc3NC2=O)cc1 (stereo not shown) [Compound 22] | – | 2.6 µM | – |
| SAP: Serum Amyloid P from EMD Millipore, known to inhibit neutrophil migration and adhesion [reference compound] | – | – | neutrophil adhesion compared to the TNF-α control ([1]; 10 microgram/ml SAP): significantly reduced neutrophil adhesion |
